The results in this text go back to ChEMBL document CHEMBL5727794, “P2X7 modulators” (2020).

Assay [1] deals with T1, P2X purinoceptor 7 (Homo sapiens, UniProt Q99572).
T1 sequence (Q99572 whole entry): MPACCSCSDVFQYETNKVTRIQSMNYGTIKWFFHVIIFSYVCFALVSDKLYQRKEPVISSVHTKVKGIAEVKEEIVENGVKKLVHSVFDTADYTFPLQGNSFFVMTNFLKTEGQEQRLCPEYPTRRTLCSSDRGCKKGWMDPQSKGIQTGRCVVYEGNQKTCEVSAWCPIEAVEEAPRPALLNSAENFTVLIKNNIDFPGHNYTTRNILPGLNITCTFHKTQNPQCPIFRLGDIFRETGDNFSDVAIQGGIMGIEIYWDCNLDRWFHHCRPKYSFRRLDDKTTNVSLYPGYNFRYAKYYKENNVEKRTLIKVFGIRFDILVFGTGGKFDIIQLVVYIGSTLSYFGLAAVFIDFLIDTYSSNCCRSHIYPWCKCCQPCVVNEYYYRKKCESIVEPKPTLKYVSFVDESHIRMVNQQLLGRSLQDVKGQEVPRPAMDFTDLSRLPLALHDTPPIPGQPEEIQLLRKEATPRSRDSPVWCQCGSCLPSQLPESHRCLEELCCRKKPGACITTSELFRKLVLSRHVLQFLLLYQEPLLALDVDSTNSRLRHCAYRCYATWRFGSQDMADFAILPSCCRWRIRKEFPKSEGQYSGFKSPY
In words: (§1) On the day of the experiment, cell membrane preparations were made according to standard published methods. The total assay volume was 100 μl:10 μl compound (10×)+(b) 40 μl tracer (2.5×)+50 μl membrane (2×). The tracer used for the assay was tritiated A-804598. The compound can be prepared as described in the literature. […] The assay was terminated by filtration (GF/B filters pre-soaked with 0.3% PEI) and washed with washing buffer (Tris-HCl 50 mM). The IC50 generated in the binding assay was corrected for tracer concentration and affinity of the tracer to derive at the affinity (Ki) of the test compounds.

Assay [2] addresses T2, P2X purinoceptor 7 (Rattus norvegicus, UniProt Q64663).
T2 sequence (Q64663 whole entry): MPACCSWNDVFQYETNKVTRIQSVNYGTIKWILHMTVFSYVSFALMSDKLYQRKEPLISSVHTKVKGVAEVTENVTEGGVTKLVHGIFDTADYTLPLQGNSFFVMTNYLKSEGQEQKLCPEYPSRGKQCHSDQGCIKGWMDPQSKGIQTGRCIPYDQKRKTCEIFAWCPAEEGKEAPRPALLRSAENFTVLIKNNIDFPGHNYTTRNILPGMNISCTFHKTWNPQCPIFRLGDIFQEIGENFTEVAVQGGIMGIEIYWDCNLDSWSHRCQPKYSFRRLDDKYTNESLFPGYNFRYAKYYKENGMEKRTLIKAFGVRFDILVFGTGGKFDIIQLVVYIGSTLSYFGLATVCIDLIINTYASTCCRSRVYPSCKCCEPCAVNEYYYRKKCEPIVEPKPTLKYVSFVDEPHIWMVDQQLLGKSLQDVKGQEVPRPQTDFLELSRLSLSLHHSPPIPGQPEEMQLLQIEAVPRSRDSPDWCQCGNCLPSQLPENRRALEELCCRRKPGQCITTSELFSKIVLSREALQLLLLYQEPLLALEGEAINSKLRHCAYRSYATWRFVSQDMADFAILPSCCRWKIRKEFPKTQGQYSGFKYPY
Described as §1.

Turning to `Cc1c(C(=O)N2Cc3nnn(C4=NN=CC4)c3CC2C)cccc1C(F)(F)F` (configuration not stated), the IC50 at P2X purinoceptor 7 [1] came to 16.5 nM; at P2X purinoceptor 7 [2], 10.2 nM.

What is called IC50 is the point on the concentration scale where inhibition reaches its midpoint.
